Results taken from PubChem BioAssay AID1963446 (Molecular Pharmacology Branch, DTP, NCI, 2024).
Several values for one entry are separate records, joined by “and”; a condition that tells them apart may be missing. Identical values can stand only once.

Tested on: 993429-296-R-J1-PDC complex spheroid growth, percent test/control
Assay: Anticancer human tumor 993429-296-R-J1-PDC patient-derived uterine sarcoma cell line growth inhibition [Asc]
Conditions: for viability, T/C: stronger effect = lower value
Outline: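 Complex solid-tumor spheroids incorporating human endothelial and mesenchymal stem cells received single agents or combinations over half-log dilution ranges anchored to clinical Cmax.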

[1] = curve of first compound, second compound 0.1 µM
[2] = curve of first compound, second compound 0.316 µM
[3] = curve of first compound, second compound 1 µM
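Also: spheroids exposed to compounds for seven days.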

In the case of O=C(c1cc(Cc2n[nH]c(=O)c3ccccc23)ccc1F)N1CCN(C(=O)C2CC2)CC1 + Cc1c(S(C)(=O)=O)c(-c2cc(F)cc(N3CCN(c4ccc(NS(=O)(=O)c5ccc(NC(CCN6CCC(C(=O)OCCCP(=O)(O)O)CC6)CSc6ccccc6)c(S(=O)(=O)C(F)(F)F)c5)cc4)CC3)c2)c(-c2ccc(Cl)cc2)n1C(C)C, the IC50 [1] is reported as 944 nM, the IC50 [2] is reported as 1110 nM and the IC50 [3] is reported as 773 nM. For the same compound, the IC50 (curve of first compound, second compound 3.16 µM) was under 31.6 nM, the IC50 (curve of first compound, second compound 10 µM) was 1480 nM and the viability, T/C (second compound 0.1 µM, first compound 0.0316 µM) was 89.2%. The viability, T/C (second compound 0.1 µM, first compound 0.1 µM) was 53.2%, the viability, T/C (second compound 0.1 µM, first compound 0.316 µM) was 56.9% and the viability, T/C (second compound 0.1 µM, first compound 1 µM) was 59.6%. For the same compound, the viability, T/C (second compound 0.1 µM, first compound 3.16 µM) was 37.8%, the viability, T/C (second compound 0.1 µM, first compound 10 µM) was 9.27% and the viability, T/C (second compound 0.316 µM, first compound 0.0316 µM) was 55.8%. The viability, T/C (second compound 0.316 µM, first compound 0.1 µM) was 51.1%, the viability, T/C (second compound 0.316 µM, first compound 0.316 µM) was 69.8% and the viability, T/C (second compound 0.316 µM, first compound 1 µM) was 49.3%. It also gave a viability, T/C (second compound 0.316 µM, first compound 3.16 µM) of 29.1%, a viability, T/C (second compound 0.316 µM, first compound 10 µM) of 8.15% and a viability, T/C (second compound 1 µM, first compound 0.0316 µM) of 51.5%. For the same compound, the viability, T/C (second compound 1 µM, first compound 0.1 µM) was 55.8%, the viability, T/C (second compound 1 µM, first compound 0.316 µM) was 57.2% and the viability, T/C (second compound 1 µM, first compound 1 µM) was 48.2%. The viability, T/C (second compound 1 µM, first compound 3.16 µM) was 20.5%, the viability, T/C (second compound 1 µM, first compound 10 µM) was 5.17% and the viability, T/C (second compound 3.16 µM, first compound 0.0316 µM) was 42%. For the same compound, the viability, T/C (second compound 3.16 µM, first compound 0.1 µM) was 39%, the viability, T/C (second compound 3.16 µM, first compound 0.316 µM) was 44.3% and the viability, T/C (second compound 3.16 µM, first compound 1 µM) was 32.6%. The viability, T/C (second compound 3.16 µM, first compound 3.16 µM) was 19.3%, the viability, T/C (second compound 3.16 µM, first compound 10 µM) was 4.24% and the viability, T/C (second compound 10 µM, first compound 0.0316 µM) was 86.9%. For the same compound, the viability, T/C (second compound 10 µM, first compound 0.1 µM) was 85.8%, the viability, T/C (second compound 10 µM, first compound 0.316 µM) was 59.9% and the viability, T/C (second compound 10 µM, first compound 1 µM) was 70%. The viability, T/C (second compound 10 µM, first compound 3.16 µM) was 13.5% and the viability, T/C (second compound 10 µM, first compound 10 µM) was 1.63%.

Compound CCN1CCN(Cc2ccc(Nc3ncc(F)c(-c4cc(F)c5nc(C)n(C(C)C)c5c4)n3)nc2)CC1 + CCN1C(C(=O)NC23CCC(C(=O)O)(CC2)CC3)C(c2cccc(Cl)c2F)C2(C(=O)Nc3cc(Cl)ccc32)C12CCCCC2 has an IC50 (curve of first compound, second compound 0.03 µM) of over 1000 nM, an IC50 (curve of first compound, second compound 0.0949 µM) of over 1000 nM and an IC50 (curve of first compound, second compound 0.3 µM) of over 1000 nM. It also gave an IC50 (curve of first compound, second compound 0.949 µM) of over 1000 nM, an IC50 (curve of first compound, second compound 3 µM) of over 1000 nM and a viability, T/C (second compound 0.03 µM, first compound 0.00316 µM) of 101%. It also gave a viability, T/C (second compound 0.03 µM, first compound 0.01 µM) of 98.5%, a viability, T/C (second compound 0.03 µM, first compound 0.0316 µM) of 102% and a viability, T/C (second compound 0.03 µM, first compound 0.1 µM) of 110%. It also gave a viability, T/C (second compound 0.03 µM, first compound 0.316 µM) of 103%, a viability, T/C (second compound 0.03 µM, first compound 1 µM) of 125% and a viability, T/C (second compound 0.0949 µM, first compound 0.00316 µM) of 99.8%. For the same compound, the viability, T/C (second compound 0.0949 µM, first compound 0.01 µM) was 107%, the viability, T/C (second compound 0.0949 µM, first compound 0.0316 µM) was 97.3% and the viability, T/C (second compound 0.0949 µM, first compound 0.1 µM) was 95.5%. The viability, T/C (second compound 0.0949 µM, first compound 0.316 µM) was 110%, the viability, T/C (second compound 0.0949 µM, first compound 1 µM) was 98.3% and the viability, T/C (second compound 0.3 µM, first compound 0.00316 µM) was 102%. For the same compound, the viability, T/C (second compound 0.3 µM, first compound 0.01 µM) was 105%, the viability, T/C (second compound 0.3 µM, first compound 0.0316 µM) was 89.5% and the viability, T/C (second compound 0.3 µM, first compound 0.1 µM) was 109%. The viability, T/C (second compound 0.3 µM, first compound 0.316 µM) was 120%, the viability, T/C (second compound 0.3 µM, first compound 1 µM) was 104% and the viability, T/C (second compound 0.949 µM, first compound 0.00316 µM) was 103%. For the same compound, the viability, T/C (second compound 0.949 µM, first compound 0.01 µM) was 99.5%, the viability, T/C (second compound 0.949 µM, first compound 0.0316 µM) was 106% and the viability, T/C (second compound 0.949 µM, first compound 0.1 µM) was 99.9%. For the same compound, the viability, T/C (second compound 0.949 µM, first compound 0.316 µM) was 107%, the viability, T/C (second compound 0.949 µM, first compound 1 µM) was 131% and the viability, T/C (second compound 3 µM, first compound 0.00316 µM) was 97.2%. The viability, T/C (second compound 3 µM, first compound 0.01 µM) was 92.9%, the viability, T/C (second compound 3 µM, first compound 0.0316 µM) was 99.7% and the viability, T/C (second compound 3 µM, first compound 0.1 µM) was 77.8%. It also gave a viability, T/C (second compound 3 µM, first compound 0.316 µM) of 84.5% and a viability, T/C (second compound 3 µM, first compound 1 µM) of 115%.

In the case of Cc1nc(N2CCC3(CC2)COC(C)C3N)c(CO)nc1Sc1ccnc(N)c1Cl (configuration not stated), the viability, T/C (compound 0.00949 µM) is reported as 94.6% and 84.2% and 83.6%, the viability, T/C (compound 0.03 µM) is reported as 93.1% and 77% and 87.6% and the viability, T/C (compound 0.0949 µM) is reported as 75.2% and 65.9% and 54.9%. For the same compound, the viability, T/C (compound 0.3 µM) was 58.9% and 43% and 42.1%, the viability, T/C (compound 0.949 µM) was 49% and 32.2% and 34.5% and the viability, T/C (compound 3 µM) was 40.3% and 25.8% and 27.8%. For the same compound, the IC50 (curve of compound) was 712 nM and 216 nM and 144 nM.

With CCN1C(C(=O)NC23CCC(C(=O)O)(CC2)CC3)C(c2cccc(Cl)c2F)C2(C(=O)Nc3cc(Cl)ccc32)C12CCCCC2 (configuration not stated) + CNC(C)C(=O)NC1CN(S(=O)(=O)c2cccc(S(=O)(=O)N3CCC4CCC(C(=O)NC(c5ccccc5)c5ccccc5)N4C(=O)C(NC(=O)C(C)NC)C3)c2)CCC2CCC(C(=O)NC(c3ccccc3)c3ccccc3)N2C1=O the IC50 (curve of first compound, second compound 0.01 µM) was over 3000 nM, the IC50 (curve of first compound, second compound 0.0316 µM) was over 3000 nM and the IC50 [1] was over 3000 nM. For the same compound, the IC50 [2] was under 9.49 nM, the IC50 [3] was over 3000 nM and the viability, T/C (second compound 0.01 µM, first compound 0.00949 µM) was 66.7%. The viability, T/C (second compound 0.01 µM, first compound 0.03 µM) was 61.1%, the viability, T/C (second compound 0.01 µM, first compound 0.0949 µM) was 64% and the viability, T/C (second compound 0.01 µM, first compound 0.3 µM) was 66.5%. For the same compound, the viability, T/C (second compound 0.01 µM, first compound 0.949 µM) was 74.5%, the viability, T/C (second compound 0.01 µM, first compound 3 µM) was 60% and the viability, T/C (second compound 0.0316 µM, first compound 0.00949 µM) was 66.2%. For the same compound, the viability, T/C (second compound 0.0316 µM, first compound 0.03 µM) was 61.2%, the viability, T/C (second compound 0.0316 µM, first compound 0.0949 µM) was 55% and the viability, T/C (second compound 0.0316 µM, first compound 0.3 µM) was 54.5%. For the same compound, the viability, T/C (second compound 0.0316 µM, first compound 0.949 µM) was 68.5%, the viability, T/C (second compound 0.0316 µM, first compound 3 µM) was 61.1% and the viability, T/C (second compound 0.1 µM, first compound 0.00949 µM) was 58.9%. The viability, T/C (second compound 0.1 µM, first compound 0.03 µM) was 50%, the viability, T/C (second compound 0.1 µM, first compound 0.0949 µM) was 56% and the viability, T/C (second compound 0.1 µM, first compound 0.3 µM) was 48.4%. It also gave a viability, T/C (second compound 0.1 µM, first compound 0.949 µM) of 60.1%, a viability, T/C (second compound 0.1 µM, first compound 3 µM) of 64% and a viability, T/C (second compound 0.316 µM, first compound 0.00949 µM) of 48.9%. The viability, T/C (second compound 0.316 µM, first compound 0.03 µM) was 55.7%, the viability, T/C (second compound 0.316 µM, first compound 0.0949 µM) was 53% and the viability, T/C (second compound 0.316 µM, first compound 0.3 µM) was 60.8%. For the same compound, the viability, T/C (second compound 0.316 µM, first compound 0.949 µM) was 68.7%, the viability, T/C (second compound 0.316 µM, first compound 3 µM) was 58.1% and the viability, T/C (second compound 1 µM, first compound 0.00949 µM) was 55.3%. It also gave a viability, T/C (second compound 1 µM, first compound 0.03 µM) of 59.9%, a viability, T/C (second compound 1 µM, first compound 0.0949 µM) of 45.4% and a viability, T/C (second compound 1 µM, first compound 0.3 µM) of 40.9%. The viability, T/C (second compound 1 µM, first compound 0.949 µM) was 51.8% and the viability, T/C (second compound 1 µM, first compound 3 µM) was 63.1%.
